One assay relates to alpha6p. Put plainly: Abundance of alpha6p on DU145H cells with exogenous agents. In kind it is cell-based, human. Particulars: data not shown.
Assay [1] deals with alpha6p integrin protein levels. The assay can be described thus: Calcium-induced terminal differentiation assay, Western blot with AA6A. In kind it is cell-based. Particulars: 291 nontransformed mouse keratinocytes, 24 h, dose-dependent (0.04 to 1.4 mM calcium). On the procedure: Cell Lines. All human cell lines were incubated at 37° C. in a humidified atmosphere of 95% air and 5% CO2. Cell lines DU145H, HaCaT, and PC3-N were grown in Iscove's modified Dulbecco's medium (Invitrogen Corporation, Carlsbad, Calif.; formerly Life Technologies, Inc.) plus 10% fetal bovine serum. Cell lines MCF-7, PC3-ATCC, LnCap, and H69 were grown in Dulbecco's modified Eagle's medium (Invitrogen Corporation, Carlsbad, Calif.; formerly Life Technologies, Inc.) plus 10% fetal bovine serum. SW480 cells were grown in super medium (Dulbecco's modified Eagle's medium plus 5% nonessential amino acids, 5% L-glutamine, 5% sodium pyruvate, 10% fetal bovine serum). Normal prostate cells, PrEC, were grown in PrEGM bullet kit medium (Clonetics, San Diego, Calif.). […]
Mouse 291 normal keratinocyte terminal differentiation can be induced by calcium. […] The presence of alpha6 and alpha6p integrins in normal 291 mouse keratinocytes was determined using whole cell lysates followed by Western blot analysis using anti-alpha6 integrin antibody, AA6A (FIG. 10A). […] The alpha6 and alpha6p integrin protein bands were quantitated using Scion Image (Cress (2000) BioTechniques 29:776-781), and the results were graphed (FIG. 10B). […]

Another assay deals with DU145H cells. The assay can be described thus: Surface half-life by biotinylation strategy. Type of assay: cell-based, human. On the procedure: Surface Biotinylation of Cell Lines. Previous published protocols (Isberg and Leong (1990) Cell 60:861-871; Einheber et al. (1993) J. Cell Biol. 123:1223-1236) were slightly modified. Briefly, cells were grown to confluency in 100-mm tissue culture dishes and washed three times with HEPES buffer (20 mM HEPES, 130 mM NaCl, 5 mM KCl, 0.8 mM MgCl2, 1.0 mM CaCl2, pH 7.45). The cells were then incubated with 2 ml of HEPES buffer supplemented with sulfosuccinimidyl hexanoate-conjugated biotin (500 μg/ml; Pierce), which is impermeable to cell membranes (Staros (1982) Biochemistry 21:3950-3), to label cell surface proteins for 30 min at 4° C. The cells were washed three times and lysed in cold radioimmune precipitation buffer plus protease inhibitors (phenylmethylsulfonyl fluoride, 2 mM; leupeptin and aprotinin, 1 μg/ml). The lysate was briefly sonicated on ice before centrifugation at 10,000 rpm for 10 min, and the supernatant was collected for immunoprecipitations.
To determine if the novel alpha6p variant was a degradation product of the alpha6 integrin that would be rapidly cleared from the surface, the surface half-life of both integrins was examined using a biotinylation strategy. […] After 24, 48, or 72 h, the integrins were immunoprecipitated using the GoH3 antibody and analyzed under non-reducing conditions (FIG. 8, panel A).

Data on nine molecules can be found in patent US20030219837A1, “Integrin ligand” (priority 2002, published 2003).

In the case of `CCCCCCCCCCCCCC(=O)O[C@@H]1[C@@H](C)[C@@]2(O)[C@@H](C=C(CO)C[C@]3(O)C(=O)C(C)=C[C@@H]23)[C@@H]2C(C)(C)[C@]12OC(C)=O` [12-O-tetradecanoylphorbol-13-acetate], the “influence on abundance of alpha6p” value in the assay on alpha6p is “not influenced”.

`CNC(=O)[C@H](Cc1ccccc1)NC(=O)[C@H](CC(C)C)[C@H](CSc1cccs1)C(=O)NO` [BB94]: the “influence on abundance of alpha6p” value in the assay on alpha6p was “not influenced”.

For the molecule `[Ca+2].[Cl-].[Cl-]` [CaCl2], the “influence on abundance of alpha6p” value with alpha6p is on record as “not influenced”.

Turning to `[Ca+2]` [Calcium, calcium], the “increase of alpha6p integrin protein levels” value in assay [1] was 3 fold.

Consider `CC(=O)N[C@@H](CC(C)C)C(=O)N[C@@H](CC(C)C)C(=O)N[C@H](C=O)CCCNC(=N)N` [leupeptin], for which, in the assay with alpha6p, the “influence on abundance of alpha6p” value was “not influenced”.

On to aprotinin, for which the “influence on abundance of alpha6p” value with alpha6p was “not influenced”.

With ecotin: exogenous protease inhibitor, in the assay with alpha6p, the “influence on abundance of alpha6p” value is listed as “not influenced”.

As to kallikrein, the “influence on abundance of alpha6p” value with alpha6p is recorded as “not influenced”.

B1: alpha6p: 70-kDa, naturally occurring truncated form of the alpha6 integrin (protein)
chain: VNSLPEVLPILNSNEAKTVQTDVHFLKEGCGDDNVCNSNLKLEYKFGTREGNQDKFSYLPIQKGIPELVLKDQKDIALEITVTNSPSDPRNPRKDGDDAHEAKLIATFPDTLTYSAYRELRAFPEKQLSCVANQNGSQADCELGNPFKRNSSVTFYLILSTTEVTFDTTDLDINLKLETTSNQDNLAPITAKAKVVIELLLSVSGVAKPSQVYFGGTVVGEQAMKSEDEVGSLIEYEFRVINLGKPLKNLGTATLNIQWPKEISNGKWLLYLMKVESKGLEQIVCEPHNEINYLKLKESHNSRKKRELPEKQIDDSRKFSLFPERKYQTLNCSVNVRCVNIRCPLRGLDSKASLVLRSRLWNSTFLEEYSKLNYLDILLRASIDVTAAAQNIKLPHAGTQVRVTVFPSKTVAQYSGVAWWIILLAVLAGILMLALLVFLLWKCGFFKRSRYDDSIPRYHAVRIRKEEREIKDEKHMDNLEKKQWITKWNENESYS
For the molecule B1, the “surface half-life relative to full-length alpha6 integrin” value in the assay on DU145H cells (surface of DU145H cells) is given as roughly 3 times. For the same molecule, in the assay on DU145H cells (surface of DU145H cells, 24, 48, 72 h after biotinylation), the “half-life on the cell surface” value is roughly 72 h.
